In patent publication US11136321B2, “Tricyclic compounds” (ALIGOS THERAPEUTICS, INC., priority 2019, dated 2021) one finds EC50 data, which are given here for 25 molecules.

This assay has as its system HBV. Put plainly: HBV-DNA antiviral assay using HepG2.117 cells. Format: cell-based, genotype D HBV. The note with it: intracellular HBV DNA by qPCR, 3 days incubation. The gist of the method:
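HepG2.117 cells (genotype D HBV, Tet-off) seeded without doxycycline and treated for 3 days at 9 concentrations (4-fold dilutions) in 2% DMSO. Intracellular HBV DNA measured by qPCR against a standard curve, with viability from ATPlite run in parallel. EC50, EC90 and CC50 fitted relative to DMSO controls.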
On the technique in general: In qPCR the cycle at which signal appears reflects the starting amount.

As a reminder, the EC50 is the concentration needed to bring the measured effect to its halfway point. In turn, `N#Cc1cc(C(=O)N2CCc3c(n4ncc(Cc5ccccc5)c4n(-c4ccc(-c5ncc[nH]5)cc4)c3=O)C2)ccc1Br` [Compound 73, 5-[5-benzyl-7-[4-(1H-imidazol-2-yl)phenyl]-8-oxo-2,3,7,12-tetrazatricyclo [7.4.0.0 2,6]trideca-1(9),3,5-triene-12-carbonyl]-2-bromo-benzonitrile] came in with an EC50 (Hepatitis B virus, 72 h) of 500 to 5000 nM.

For the molecule `N#Cc1cc(C(=O)N2CCc3c(n4ncc(Cc5ccccc5)c4n(-c4ccc(-n5cccn5)cc4)c3=O)C2)ccc1Br` [Compound 78, 5-[5-benzyl-8-oxo-7-(4-pyrazol-1-ylphenyl)-2,3,7,12-tetrazatricyclo [7.4.0.0 2,6]trideca-1(9),3,5-triene-12-carbonyl]-2-bromo-benzonitrile], the concentration for a half-maximal effect (EC50) (Hepatitis B virus, 72 h) was over 5000 nM.

`CNC(=O)c1ccc(-n2c(=O)c3c(n4ncc(NCc5ccccc5F)c24)CN(C(=O)c2ccc(Br)c(C#N)c2)CC3)cc1` [Compound 69, 4-[12-(4-bromo-3-cyano-benzoyl)-5-[(2-fluorophenyl)methylamino]-8-oxo-2,3,7,12-tetrazatricyclo [7.4.0.0 2,6]trideca-1(9),3,5-trien-7-yl]-N-methyl-benzamide] registered a half-maximal effective concentration (EC50) (Hepatitis B virus, 72 h) of 100 to 500 nM.

In turn, `O=C(c1ccc(Br)c(Cl)c1)N1CCc2c(n3ncc(Cc4ccccc4)c3n(-c3ccccc3)c2=O)C1` [Compound 12, 5-benzyl-12-(4-bromo-3-chlorobenzoyl)-7-phenyl-2,3,7,12-tetraazatricyclo[7.4.0.0^[2,6]]trideca-1(9),3,5-trien-8-one] registered a concentration giving a half-maximal response (EC50) (Hepatitis B virus, 72 h) of 100 to 500 nM.

For `CNC(=O)c1ccc(-n2c(=O)c3c(n4ncc(NCc5ccc(F)cc5)c24)CN(C(=O)c2ccc(Br)c(C#N)c2)CC3)cc1` [Compound 70, 4-[12-(4-bromo-3-cyano-benzoyl)-5-[(4-fluorophenyl)methylamino]-8-oxo-2,3,7,12-tetrazatricyclo [7.4.0.0 2,6]trideca-1(9),3,5-trien-7-yl]-N-methyl-benzamide], the EC50 (Hepatitis B virus, 72 h) was 100 to 500 nM.

Where the note is “Hepatitis B virus, 72 h”, `COc1ccc(-n2c(=O)c3c(n4ncc(NC(=O)Cc5ccccc5)c24)CN(C(=O)c2ccc(Cl)c(Cl)c2)CC3)cc1` [Compound 23, N-[12-(3,4-dichlorobenzoyl)-7-(4-methoxyphenyl)-8-oxo-2,3,7,12-tetrazatricyclo [7.4.0.0 2,6]trideca-1(9),3,5-trien-5-yl]-2-phenyl-acetamide] came in with an EC50 of 500 to 5000 nM.

`CNC(=O)c1ccc(-n2c(=O)c3c(n4ncc(Cc5ccccc5)c24)CN(C(=O)c2ccc(Br)c(C#N)c2)[C@@H](C)C3)cc1` (stereo in doubt) [Compound 80, N-methyl-4-[rac-(11S)-5-benzyl-12-(4-bromo-3-cyano-benzoyl)-11-methyl-8-oxo-2,3,7,12-tetrazatricyclo [7.4.0.0 2,6]trideca-1(9),3,5-trien-7-yl] benzamide] yielded an EC50 (Hepatitis B virus, 72 h) of 100 to 500 nM.

Molecule `CNC(=O)c1ccc(-n2c(=O)c3c(n4ncc(Nc5ccc(F)cc5)c24)CN(C(=O)c2ccc(Br)c(Cl)c2)CC3)cc1` [Compound 54, 4-[12-(4-bromo-3-chloro-benzoyl)-5-(4-fluoroanilino)-8-oxo-2,3,7,12-tetrazatricyclo [7.4.0.0 2,6]trideca-1(9),3,5-trien-7-yl]-N-methyl-benzamide] showed an EC50 (Hepatitis B virus, 72 h) of at most 100 nM.

`CNC(=O)c1ccc(-n2c(=O)c3c(n4ncc(NCc5ccc(C#N)cc5)c24)CN(C(=O)c2ccc(Br)c(Cl)c2)CC3)cc1` [Compound 55, 4-[12-(4-bromo-3-chloro-benzoyl)-5-[(4-cyanophenyl)methylamino]-8-oxo-2,3,7,12-tetrazatricyclo [7.4.0.0 2,6]trideca-1(9),3,5-trien-7-yl]-N-methyl-benzamide] returned an EC50 (Hepatitis B virus, 72 h) of 100 to 500 nM.

As for `CNC(=O)c1ccc(-n2c(=O)c3c(n4ncc([C@H](C)c5ccccc5)c24)CN(C(=O)c2ccc(Br)c(C#N)c2)CC3)cc1` (stereo in doubt) [Compound 57, 4-[12-(4-bromo-3-cyano-benzoyl)-8-oxo-5-[rac-(1R)-1-phenylethyl]-2,3,7,12-tetrazatricyclo [7.4.0.0 2,6]trideca-1(9),3,5-trien-7-yl]-N-methyl-benzamide], the 50% effective concentration (EC50) (Hepatitis B virus, 72 h) was at most 100 nM.

As to `CNC(=O)c1ccc(-n2c(=O)c3c(n4ncc(NCc5ccc(OC(F)F)cc5)c24)CN(C(=O)c2ccc(Cl)c(Cl)c2)CC3)cc1` [Compound 41, 4-[12-(3,4-dichlorobenzoyl)-5-[[4-(difluoromethoxy)phenyl]methylamino]-8-oxo-2,3,7,12-tetrazatricyclo [7.4.0.0 2,6]trideca-1(9),3,5-trien-7-yl]-N-methyl-benzamide], for the setting “Hepatitis B virus, 72 h”, the half-maximal effective concentration (EC50) was 500 to 5000 nM.

Molecule `COc1ccc(-n2c(=O)c3c(n4ncc(NC(=O)c5ccccc5)c24)CN(C(=O)c2ccc(Br)c(Cl)c2)CC3)cc1` [Compound 30, N-[12-(4-bromo-3-chloro-benzoyl)-7-(4-methoxyphenyl)-8-oxo-2,3,7,12-tetrazatricyclo [7.4.0.0 2,6]trideca-1(9),3,5-trien-5-yl] benzamide] came in with a concentration giving a half-maximal response (EC50) (Hepatitis B virus, 72 h) of 100 to 500 nM.

Consider `CNC(=O)c1ccc(-n2c(=O)c3c(n4ncc(Cc5ccccc5)c24)CN(C(=O)c2ccc(Br)c(Cl)c2)CC3)cc1Cl` [Compound 38, 4-[5-benzyl-12-(4-bromo-3-chloro-benzoyl)-8-oxo-2,3,7,12-tetrazatricyclo [7.4.0.0 2,6]trideca-1(9),3,5-trien-7-yl]-2-chloro-N-methyl-benzamide], for which the EC50 (Hepatitis B virus, 72 h) was at most 100 nM.

As for `CNC(=O)c1ccc(-n2c(=O)c3c(n4ncc(Cc5ccc(OC)cc5)c24)CN(C(=O)c2ccc(Br)c(C#N)c2)CC3)cc1` [Compound 89, 4-[12-(4-bromo-3-cyano-benzoyl)-5-[(4-methoxyphenyl)methyl]-8-oxo-2,3,7,12-tetrazatricyclo [7.4.0.0 2,6]trideca-1(9),3,5-trien-7-yl]-N-methyl-benzamide], the EC50 (Hepatitis B virus, 72 h) is at most 100 nM.

`COc1ccc(-n2c(=O)c3c(n4ncc(NS(=O)(=O)c5ccccc5)c24)CN(C(=O)c2ccc(Br)c(Cl)c2)CC3)cc1` [Compound 31, N-[12-(4-bromo-3-chloro-benzoyl)-7-(4-methoxyphenyl)-8-oxo-2,3,7,12-tetrazatricyclo [7.4.0.0 2,6]trideca-1(9),3,5-trien-5-yl] benzenesulfonamide] returned an EC50 (Hepatitis B virus, 72 h) of at most 100 nM.

`COc1ccc(-n2c(=O)c3c(n4ncc(NCc5ccccc5)c24)CN(C(=O)c2ccc(Cl)c(Cl)c2)CC3)cc1` [Compound 25, 5-(benzylamino)-12-(3,4-dichlorobenzoyl)-7-(4-methoxyphenyl)-2,3,7,12-tetraazatricyclo[7.4.0.0^[2,6]]trideca-1(9),3,5-trien-8-one]: the EC50 was at most 100 nM.

For the setting “Hepatitis B virus, 72 h”, `O=C(Nc1ccc(F)c(Cl)c1)N1CCc2c(n3nccc3n(Cc3ccccc3)c2=O)C1` [Compound 2, 4-benzyl-N-(3-chloro-4-fluorophenyl)-5-oxo-5,6,7,9-tetrahydropyrazolo[1,5-a]pyrido[4,3-e]pyrimidine-8(4H)-carboxamide] yielded an EC50 of 500 to 5000 nM.

`Cc1cnn2c3c(c(=O)n(-c4ccccc4)c12)CCN(C(=O)c1ccc(Br)c(Cl)c1)C3` [Compound 10, 12-(4-bromo-3-chlorobenzoyl)-5-methyl-7-phenyl-2,3,7,12-tetraazatricyclo[7.4.0.0^[2,6]]trideca-1(9),3,5-trien-8-one] yielded a half-maximal effective concentration (EC50) (Hepatitis B virus, 72 h) of 100 to 500 nM.

For the molecule `CNC(=O)c1ccc(-n2c(=O)c3c(n4ncc(Cc5ccc(C#N)cc5F)c24)CN(C(=O)c2ccc(Br)c(Cl)c2)CC3)cc1` [Compound 85, 4-[12-(4-bromo-3-chloro-benzoyl)-5-[(4-cyano-2-fluoro-phenyl)methyl]-8-oxo-2,3,7,12-tetrazatricyclo [7.4.0.0 2,6]trideca-1(9),3,5-trien-7-yl]-N-methyl-benzamide], the 50% effective concentration (EC50) (Hepatitis B virus, 72 h) is at most 100 nM.

The molecule `CNC(=O)c1ccc(-n2c(=O)c3c(n4ncc(Cc5ccc(F)cc5)c24)CN(C(=O)c2ccc(Br)c(Cl)c2)CC3)cc1` [Compound 59, 4-[12-(4-bromo-3-chloro-benzoyl)-5-[(4-fluorophenyl)methyl]-8-oxo-2,3,7,12-tetrazatricyclo [7.4.0.0 2,6]trideca-1(9),3,5-trien-7-yl]-N-methyl-benzamide] showed an EC50 (Hepatitis B virus, 72 h) of at most 100 nM.

On to `CC(C)NC(=O)c1ccc(-n2c(=O)c3c(n4ncc(Cc5ccccc5)c24)CN(C(=O)c2ccc(Br)c(C#N)c2)CC3)cc1` [Compound 65, 4-[5-benzyl-12-(4-bromo-3-cyano-benzoyl)-8-oxo-2,3,7,12-tetrazatricyclo [7.4.0.0 2,6]trideca-1(9),3,5-trien-7-yl]-N-isopropyl-benzamide], for which the concentration giving a half-maximal response (EC50) (Hepatitis B virus, 72 h) was 500 to 5000 nM.

On to `COc1ccc(Cn2c(=O)c3c(n4ncc(Cc5ccccc5)c24)CN(C(=O)c2ccc(Cl)c(Cl)c2)CC3)cc1` [Compound 14, 5-benzyl-12-(3,4-dichlorobenzoyl)-7-[(4-methoxyphenyl)methyl]-2,3,7,12-tetrazatricyclo [7.4.0.0^2,6] trideca-1(9),3,5-trien-8-one], for which, under “Hepatitis B virus, 72 h”, the EC50 was 500 to 5000 nM.

In turn, `O=C(c1ccc(Br)c(Cl)c1)N1CCc2c(n3ncc(Cc4ccccc4)c3n(-c3ccc(-c4ncc[nH]4)cc3)c2=O)C1` [Compound 90, 5-benzyl-12-(4-bromo-3-chloro-benzoyl)-7-[4-(1H-imidazol-2-yl)phenyl]-2,3,7,12-tetrazatricyclo [7.4.0.0 2,6] trideca-1(9),3,5-trien-8-one] showed an EC50 (Hepatitis B virus, 72 h) of 500 to 5000 nM.

Regarding `COc1ccc(-n2c(=O)c3c(n4ncc(NS(C)(=O)=O)c24)CN(C(=O)c2ccc(Cl)c(Cl)c2)CC3)cc1` [Compound 26, N-[12-(3,4-dichlorobenzoyl)-7-(4-methoxyphenyl)-8-oxo-2,3,7,12-tetrazatricyclo [7.4.0.0 2,6]trideca-1(9),3,5-trien-5-yl] methanesulfonamide], the concentration giving a half-maximal response (EC50) (Hepatitis B virus, 72 h) lay within 500 to 5000 nM.

In turn, `CNC(=O)c1ccc(-n2c(=O)c3c(n4ncc(Cc5ccc(C#N)cc5F)c24)CN(C(=O)c2ccc(Br)c(C#N)c2)CC3)cc1` [Compound 84, 4-[12-(4-bromo-3-cyano-benzoyl)-5-[(4-cyano-2-fluoro-phenyl)methyl]-8-oxo-2,3,7,12-tetrazatricyclo [7.4.0.0 2,6]trideca-1(9),3,5-trien-7-yl]-N-methyl-benzamide] displayed an EC50 (Hepatitis B virus, 72 h) of 500 to 5000 nM.
